Test results: patent US10768184B2, “Methods for increasing palatability of pet foodstuff” (MARS, INCORPORATED, priority 2013, dated 2020)

Tests used:
cats = assay: Cat gel panel feeding test, monadic exposure (palatability, gel intake); assay type: in vivo
Method: A cat gel panel was used to compare the palatability of a range of concentrations of oleic acid in a monadic exposure. The dose response tested 8 concentrations of oleic acid ranging from 0.001% oleic acid to 1% oleic acid. All products (including the blank, 0% oleic acid) contained 25 mM L-histidine as an ingestive/positive tastant to increase the baseline gel intake, enabling the identification of a potential negative impact of the oleic acid concentration. A cat gel panel was used to compare the palatability of a range of concentrations of linoleic acid in a monadic exposure. The dose response tested 8 concentrations of linoleic acid ranging from 0.001% linoleic acid to 1% linoleic acid. All products (including the blank, 0% linoleic acid) contained 25 mM L-histidine as an ingestive/positive tastant to increase the baseline gel intake, enabling the identification of a potential negative impact of the linoleic acid concentration. A cat gel panel was used to compare the palatability of a range of concentrations of lauric acid in a monadic exposure. The dose response tested 5 concentrations of lauric acid ranging from 0.05% lauric acid to 1% lauric acid. All products (including the blank, 0% lauric acid) contained 25 mM L-histidine as an ingestive/positive tastant to increase the baseline gel intake, enabling the identification of a potential negative impact of the lauric acid concentration. A cat gel panel was used to compare the palatability of a range of concentrations of palmitic acid in a monadic exposure. The dose response tested 5 concentrations of palmitic acid ranging from 0.05% palmitic acid to 1% palmitic acid. All products (including the blank, 0% palmitic acid) contained 25 mM L-histidine as an ingestive/positive tastant to increase the baseline gel intake, enabling the identification of a potential negative impact of the palmitic acid concentration.

dogs = assay: Dog panel feeding test, monadic exposure (palatability, gel intake), two single-breed panels; assay type: in vivo; settings: 100 mM L-histidine
Method: Two different dog panels were used to compare the palatability of concentrations of linoleic acid. Each panel was made up of a single breed of dog; each panel being a different breed. The canine panels were used to compare the palatability of a range of concentrations of linoleic acid in a monadic exposure. The dose response tested 3 concentrations of linoleic acid ranging from 0.01% linoleic acid to 1% linoleic acid. All products (including the blank, 0% linoleic acid) contained 100 mM L-histidine as an ingestive/positive tastant to increase the baseline gel intake, enabling the identification of a potential negative impact of the linoleic acid concentration. Two different dog panels were used to compare the palatability of concentrations of oleic acid. Each panel was made up of a single breed of dog; each panel being a different breed. The canine panels were used to compare the palatability of a range of concentrations of oleic acid in a monadic exposure. The dose response tested 3 concentrations of oleic acid ranging from 0.01% oleic acid to 1% oleic acid. All products (including the blank, 0% oleic acid) contained 100 mM L-histidine as an ingestive/positive tastant to increase the baseline gel intake, enabling the identification of a potential negative impact of the oleic acid concentration.

cat GPR120 = assay: Calcium-sensitive fluorescent dye (Fluo8) FLIPR assay, transiently transfected cells; assay type: cell-based; settings: in vitro assays with the feline receptors
Method: These constructs were then transiently transfected into the CHO K1 immortalised cell line, and other commonly used cell lines using Lipofectamine 2000 and testing was performed to establish the successful expression of the target protein. The testing was carried out using a calcium sensitive fluorescent dye (Fluo8). Transfected cells were seeded into 384 well assay plates. By loading the cells with the dye and then challenging the cells with an agonist for the receptor the response of the cells could be recorded on the FLIPR^TETRA instrument by measuring the increase in fluorescence associated with intra-cellular calcium release, thus confirming the functional expression of the receptor. Suitable experimental controls eliminate any possibility that the response of the cells is non-specific or that the fluorescence increase is due to factors other than the release of intracellular calcium by the cells.

[1] = 0.1% fatty acid in gel with 25 mM L-histidine
[2] = 0.6% fatty acid in gel with 25 mM L-histidine
[3] = dog panel Breed 1, 1% fatty acid (highest tested)

Row | SMILES | intake compared to the blank (cats; [1]) | intake compared to the blank (cats; 0.2% (w/v) fatty acid in gel with 25 mM L-histidine) | intake compared to the blank (cats; 0.3% (w/v) fatty acid in gel with 25 mM L-histidine) | intake compared to the blank (cats; [2]) | response compared to the blank (dogs; [3]) | response compared to the blank (dogs; dog panel Breed 2, 0.1% fatty acid) | activation of feline receptors in vitro (cat GPR120) | intake compared to the blank (cats; 1% fatty acid in gel with 25 mM L-histidine) | intake compared to the blank (cats; any of the 5 concentrations tested, 0.05% to 1%, 25 mM L-histidine) | intake compared to the blank (cats; higher concentrations (above 0.1%, up to 1%), 25 mM L-histidine) | response compared to the blank (dogs; dog panel Breed 2, 3 concentrations tested, 0.01% to 1%)
1 | CCCCCCCC/C=C\CCCCCCCC(=O)O [oleic acid] | significantly higher intake | significantly higher intake | significantly higher intake | significantly higher intake | significant positive/ingestive response | significant positive/ingestive response | positive activation |  |  |  | 
2 | CCCCCCCCCCCC(=O)O [lauric acid] | highest intake overall |  |  | significantly aversive/negative |  |  |  | significantly aversive/negative |  |  | 
3 | CCCCCCCCCCCCCCCC(=O)O [palmitic acid] |  |  |  |  |  |  |  |  | no significant difference |  | 
4 | CCCCC/C=C\C/C=C\CCCCCCCC(=O)O [linoleic acid] | significantly higher intake |  |  |  | significant positive/ingestive response |  | positive activation |  |  | trend for the higher concentrations to become aversive/negative | smaller differences between the linoleic acid concentrations tested
